Patent US20260327204A1, “DEGRADERS OF CYCLIN-DEPENDENT KINASE 12/13, COMPOSITIONS, AND USES THEREOF” (ZHEJIANG UNIVERSITY, priority 2023, published 2026)

Tests used:
Assay type in all cases: cell-based
Parameters in all cases: degradation of CDK12/13 protein in leukemia cells KASUMI-1, MV4-11, and Jurkat; endogenous in cells
CDK12 [1] = biological target: T1, CDK12 (Homo sapiens, UniProt Q9NYV4); test: Western blot degradation of CDK12 (Example 3)
CDK13 [2] = biological target: T2, CDK13 (Homo sapiens, UniProt Q14004); test: Western blot degradation of CDK13 (Example 3)
CDK12 [3] = biological target: T1, CDK12; test: Western blot degradation of CDK12 (Example 2); conditions: DC50 classes, cell line not given; for DC50: read-out: CDK12 degradation Activity
How it was run: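 Leukemia lines KASUMI-1, MV4-11, Jurkat, plus MDA-MB-231 for a concentration series, treated at 0.01–3 μM for 3–48 h at 37 °C against DMSO control. Lysates in 4% SDS; CDK12/13 band intensity normalized to β-Actin or GAPDH to give degradation rate.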

CDK13 [4] = biological target: T2, CDK13; test: Western blot degradation of CDK13 (Example 2); conditions: DC50 classes, cell line not given; for DC50: read-out: CDK13 degradation Activity
[5] = DC50 classes; cell line not given; read-out: CDK12 degradation Activity
[6] = DC50 classes; cell line not given; read-out: CDK13 degradation Activity

T1 sequence (Q9NYV4 whole entry): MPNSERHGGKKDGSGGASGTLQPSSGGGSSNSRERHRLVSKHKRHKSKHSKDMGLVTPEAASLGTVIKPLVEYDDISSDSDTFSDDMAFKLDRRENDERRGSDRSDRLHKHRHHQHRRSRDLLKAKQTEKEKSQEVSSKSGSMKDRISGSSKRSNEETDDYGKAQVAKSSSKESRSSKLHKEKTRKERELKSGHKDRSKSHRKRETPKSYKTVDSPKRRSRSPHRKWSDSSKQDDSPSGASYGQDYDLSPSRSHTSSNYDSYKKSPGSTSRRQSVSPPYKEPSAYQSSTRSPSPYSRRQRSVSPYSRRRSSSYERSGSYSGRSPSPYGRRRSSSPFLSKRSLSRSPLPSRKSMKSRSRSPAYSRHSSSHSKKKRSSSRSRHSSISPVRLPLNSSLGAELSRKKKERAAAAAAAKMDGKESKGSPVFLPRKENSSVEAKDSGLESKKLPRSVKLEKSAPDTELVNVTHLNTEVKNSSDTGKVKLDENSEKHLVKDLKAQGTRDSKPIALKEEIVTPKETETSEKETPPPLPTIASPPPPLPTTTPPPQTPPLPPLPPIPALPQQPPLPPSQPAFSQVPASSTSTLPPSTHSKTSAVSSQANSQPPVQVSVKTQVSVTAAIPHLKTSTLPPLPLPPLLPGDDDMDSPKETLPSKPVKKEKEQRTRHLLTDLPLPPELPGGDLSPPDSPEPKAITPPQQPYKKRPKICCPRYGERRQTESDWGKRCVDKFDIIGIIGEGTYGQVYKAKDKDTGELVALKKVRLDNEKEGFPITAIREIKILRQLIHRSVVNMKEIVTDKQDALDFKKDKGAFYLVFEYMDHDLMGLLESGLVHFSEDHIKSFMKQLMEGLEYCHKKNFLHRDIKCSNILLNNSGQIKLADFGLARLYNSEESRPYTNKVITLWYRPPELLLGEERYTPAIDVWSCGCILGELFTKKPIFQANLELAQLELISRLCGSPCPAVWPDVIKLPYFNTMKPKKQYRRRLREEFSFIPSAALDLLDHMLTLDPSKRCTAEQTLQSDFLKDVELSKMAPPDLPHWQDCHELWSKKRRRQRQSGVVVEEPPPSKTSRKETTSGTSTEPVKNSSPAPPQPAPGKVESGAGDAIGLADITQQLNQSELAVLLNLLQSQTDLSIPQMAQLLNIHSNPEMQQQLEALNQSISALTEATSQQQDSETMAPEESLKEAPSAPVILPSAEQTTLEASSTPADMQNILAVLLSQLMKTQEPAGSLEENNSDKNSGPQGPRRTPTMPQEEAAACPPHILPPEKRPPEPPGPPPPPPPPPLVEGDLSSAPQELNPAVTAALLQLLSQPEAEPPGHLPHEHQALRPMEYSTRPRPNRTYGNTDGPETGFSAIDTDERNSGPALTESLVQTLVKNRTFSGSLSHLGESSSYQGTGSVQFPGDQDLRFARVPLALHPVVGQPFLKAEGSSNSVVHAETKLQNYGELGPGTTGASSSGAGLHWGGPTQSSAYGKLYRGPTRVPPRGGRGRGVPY
T1 sequence (O75909 whole entry partner): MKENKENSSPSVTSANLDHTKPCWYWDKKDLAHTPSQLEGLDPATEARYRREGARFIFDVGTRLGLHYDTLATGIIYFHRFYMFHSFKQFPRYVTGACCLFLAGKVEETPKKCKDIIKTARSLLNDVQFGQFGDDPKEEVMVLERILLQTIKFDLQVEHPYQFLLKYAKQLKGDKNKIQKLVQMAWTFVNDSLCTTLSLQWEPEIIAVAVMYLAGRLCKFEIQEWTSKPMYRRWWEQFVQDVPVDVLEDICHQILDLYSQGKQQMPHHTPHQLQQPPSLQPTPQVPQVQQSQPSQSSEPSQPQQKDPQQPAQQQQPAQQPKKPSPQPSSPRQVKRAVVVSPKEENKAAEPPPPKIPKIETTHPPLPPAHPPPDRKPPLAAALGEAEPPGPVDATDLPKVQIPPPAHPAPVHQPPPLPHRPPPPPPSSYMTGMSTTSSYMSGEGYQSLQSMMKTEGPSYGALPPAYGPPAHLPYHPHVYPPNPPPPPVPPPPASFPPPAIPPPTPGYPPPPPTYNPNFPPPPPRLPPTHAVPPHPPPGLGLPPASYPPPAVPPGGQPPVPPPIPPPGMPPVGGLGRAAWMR
T2 sequence (Q14004 whole entry): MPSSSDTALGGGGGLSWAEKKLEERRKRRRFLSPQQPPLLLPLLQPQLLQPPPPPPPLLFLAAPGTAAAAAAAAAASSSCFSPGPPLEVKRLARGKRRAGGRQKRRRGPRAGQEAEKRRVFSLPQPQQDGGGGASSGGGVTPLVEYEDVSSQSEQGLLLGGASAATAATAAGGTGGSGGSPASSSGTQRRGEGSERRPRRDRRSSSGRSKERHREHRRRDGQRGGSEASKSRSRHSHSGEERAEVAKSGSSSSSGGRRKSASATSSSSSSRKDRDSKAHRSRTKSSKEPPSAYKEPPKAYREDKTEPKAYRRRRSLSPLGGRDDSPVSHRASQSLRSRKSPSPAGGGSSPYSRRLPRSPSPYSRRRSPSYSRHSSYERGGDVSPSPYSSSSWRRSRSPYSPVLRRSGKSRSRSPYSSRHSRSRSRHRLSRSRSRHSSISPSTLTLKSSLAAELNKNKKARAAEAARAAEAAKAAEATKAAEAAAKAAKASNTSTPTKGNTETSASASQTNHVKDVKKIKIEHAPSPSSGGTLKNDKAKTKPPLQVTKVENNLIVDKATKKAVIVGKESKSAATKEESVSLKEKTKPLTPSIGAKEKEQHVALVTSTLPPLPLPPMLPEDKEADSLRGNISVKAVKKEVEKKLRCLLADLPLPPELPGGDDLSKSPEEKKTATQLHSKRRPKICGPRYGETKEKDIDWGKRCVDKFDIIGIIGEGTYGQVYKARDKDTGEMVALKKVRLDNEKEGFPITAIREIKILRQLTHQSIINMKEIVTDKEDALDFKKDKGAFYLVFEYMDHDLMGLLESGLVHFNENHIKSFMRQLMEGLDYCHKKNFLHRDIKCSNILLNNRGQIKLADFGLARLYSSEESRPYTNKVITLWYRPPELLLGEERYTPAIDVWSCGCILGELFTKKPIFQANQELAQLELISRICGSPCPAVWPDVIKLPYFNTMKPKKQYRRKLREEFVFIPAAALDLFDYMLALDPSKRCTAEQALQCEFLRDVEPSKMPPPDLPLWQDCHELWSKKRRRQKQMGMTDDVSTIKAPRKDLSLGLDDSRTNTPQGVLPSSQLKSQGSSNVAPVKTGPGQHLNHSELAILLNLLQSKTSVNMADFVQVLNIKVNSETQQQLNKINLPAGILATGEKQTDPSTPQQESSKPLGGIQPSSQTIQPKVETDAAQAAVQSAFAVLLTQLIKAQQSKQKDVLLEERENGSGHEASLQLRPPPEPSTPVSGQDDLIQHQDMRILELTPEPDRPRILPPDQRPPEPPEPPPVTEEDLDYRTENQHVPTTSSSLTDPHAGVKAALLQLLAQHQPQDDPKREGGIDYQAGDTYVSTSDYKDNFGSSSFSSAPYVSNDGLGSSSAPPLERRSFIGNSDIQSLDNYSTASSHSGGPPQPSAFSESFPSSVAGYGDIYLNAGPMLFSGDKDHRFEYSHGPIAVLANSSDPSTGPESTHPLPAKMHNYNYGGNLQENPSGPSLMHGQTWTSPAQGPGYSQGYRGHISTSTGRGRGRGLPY
T2 sequence (O75909 whole entry partner): as the sequence (O75909 whole entry partner) above

| SMILES | DC50 (CDK12 [1]; [5]) [nM] | DC50 (CDK13 [2]; [6]) [nM] | also measured |
| --- | --- | --- | --- |
| CC(=O)N(c1ccc(-c2cnc(OC3CN(c4ccc5c(c4)C(=O)N(C4CCC(=O)NC4=O)C5=O)C3)nc2)cc1)[C@H]1CC[C@H](Nc2ncc3ccccc3n2)CC1 (stereo partly drawn) [Formula 108, N-(4-(2-((1-(2-(2,6-dioxopiperidin-3-yl)-1,3-dioxoisoindolin-5-yl)azetidin-3-yl)oxy)pyrimidin-5-yl)phenyl)-N-((1R,4R)-4-(quinazolin-2-ylamino)cyclohexyl)acetamide] | 100 to 500 | 100 to 500 |  |
| CC(=O)N(c1ccc(-c2ccc(N3CCN(Cc4cnn([C@H](C(=O)N5C[C@H](O)C[C@H]5C(=O)N[C@@H](C)c5ccc(-c6scnc6C)cc5)C(C)C)c4)CC3)nc2)cc1)C1CCC(Nc2ncc3ccccc3n2)CC1 (stereo partly drawn) [Formula 151, (2S,4R)-4-hydroxy-1-((S)-3-methyl-2-(4-((4-(5-(4-(N-((1R,4R)-4-(quinazolin-2-ylamino)cyclohexyl)acetamido)phenyl)pyridin-2-yl)piperazin-1-yl)methyl)-1H-pyrazol-1-yl)butanoyl)-N—((S)-1-(4-(4-methylthiazol-5-yl)phenyl)ethyl)pyrrolidine-2-carboxamide] |  |  | DC50 (CDK12 [1]; read-out: CDK12 degradation Activity; DC50 classes; cell line not given): 500 to 1000 nM; DC50 (CDK13 [2]; read-out: CDK13 degradation Activity; DC50 classes; cell line not given): 100 to 500 nM |
| CC(=O)N(c1ccc(-c2ccc(CN3CCN(c4ccc5c(c4)C(=O)N(C4CCC(=O)NC4=O)C5=O)CC3)nc2)cc1)[C@H]1CC[C@H](Nc2ncc3ccccc3n2)CC1 (stereo partly drawn) [Formula 102, N-(4-(6-((4-(2-(2,6-dioxopiperidin-3-yl)-1,3-dioxoisoindolin-5-yl)piperazin-1-yl)methyl)pyridin-3-yl)phenyl)-N-((1R,4R)-4-(quinazolin-2-ylamino)cyclohexyl)acetamide] | 500 to 1000 | 100 to 500 |  |
| CCNC(=O)N(c1ccc(-c2ccc(N3CCN(CC(=O)N[C@H](C(=O)N4C[C@H](O)C[C@H]4C(=O)N[C@@H](C)c4ccc(-c5scnc5C)cc4)C(C)(C)C)CC3)nc2)cc1)[C@H]1CC[C@H](Nc2ccc(C#N)cn2)CC1 [Formula 44] |  |  | DC50 (CDK12 [3]): 500 to 1000 nM; DC50 (CDK13 [4]): 100 to 500 nM |
| Cc1ncsc1-c1ccc([C@H](C)NC(=O)[C@@H]2C[C@@H](O)CN2C(=O)[C@@H](NC(=O)Cn2cc(-c3ccc(N(C(=O)NCc4ccccc4)[C@H]4CC[C@H](Nc5ncc(C#N)cn5)CC4)cc3)ccc2=O)C(C)(C)C)cc1 [Formula 61] |  |  | CDK12 degradation Activity (CDK12 [3]): −; CDK13 degradation Activity (CDK13 [4]): − |
| Cc1ncsc1-c1ccc([C@H](C)NC(=O)[C@@H]2C[C@@H](O)CN2C(=O)[C@@H](NC(=O)CN2CCC(C#Cc3ccc(N(C(=O)NCc4ccccc4)[C@H]4CC[C@H](Nc5ccc(C#N)cn5)CC4)cc3)CC2)C(C)(C)C)cc1 [Formula 25] |  |  | DC50 (CDK12 [3]): 3000 to 10000 nM; DC50 (CDK13 [4]): 3000 to 10000 nM |
| Cc1ncsc1-c1ccc([C@H](C)NC(=O)[C@@H]2C[C@@H](O)CN2C(=O)[C@@H](NC(=O)COCCOCCOCCOCCOCCn2cc(-c3ccc(N(C(=O)NCc4ccccc4)[C@H]4CC[C@H](Nc5ccc(C#N)cn5)CC4)cc3)ccc2=O)C(C)(C)C)cc1 [Formula 60] |  |  | DC50 (CDK12 [3]): 1000 to 3000 nM; DC50 (CDK13 [4]): 500 to 1000 nM |
| Cc1ncsc1-c1ccc([C@H](C)NC(=O)[C@@H]2C[C@@H](O)CN2C(=O)[C@@H](NC(=O)C2CC3(CC(Nc4ccc(N(C(=O)NCc5ccccc5)[C@H]5CC[C@H](Nc6ccc(C#N)cn6)CC5)cc4)C3)C2)C(C)(C)C)cc1 (stereo partly shown) [Formula 27] |  |  | DC50 (CDK12 [3]): 3000 to 10000 nM; CDK13 degradation Activity (CDK13 [4]): − |
| Cc1ncsc1-c1ccc([C@H](C)NC(=O)[C@@H]2C[C@@H](O)CN2C(=O)[C@@H](NC(=O)COCCOCCN2CCN(c3ccc(N(C(=O)NCc4ccccc4)[C@H]4CC[C@H](Nc5ccc(C#N)cn5)CC4)cc3)CC2)C(C)(C)C)cc1 [Formula 8] |  |  | DC50 (CDK12 [3]): 500 to 1000 nM; DC50 (CDK13 [4]): 500 to 1000 nM |

Now from value to compound, other results behind:

| DC50 (CDK12 [1]; [5]) [nM] | DC50 (CDK13 [2]; [6]) [nM] | SMILES | also measured |
| --- | --- | --- | --- |
| 100 to 500 | 500 to 1000 | CC(=O)N(c1ccc(N2CCN(C3CCN(c4ccc5c(c4)C(=O)N(C4CCC(=O)NC4=O)C5=O)CC3)CC2)cc1)[C@H]1CC[C@H](Nc2ncc3ccccc3n2)CC1 (stereo partly drawn) [Formula 123, N-(4-(4-(1-(2-(2,6-dioxopiperidin-3-yl)-1,3-dioxoisoindolin-5-yl)piperidin-4-yl)piperazin-1-yl)phenyl)-N-((1R,4R)-4-(quinazolin-2-ylamino)cyclohexyl)acetamide] |  |
| 1000 to 3000 | 1000 to 3000 | CC(=O)N(c1ccc(-c2cnc(N3CCN(c4cc5c(cc4F)C(=O)N(C4CCC(=O)NC4=O)C5=O)CC3)nc2)cc1)[C@H]1CC[C@H](Nc2ncc3ccccc3n2)CC1 (stereo partly drawn) [Formula 114, N-(4-(2-(4-(2-(2,6-dioxopiperidin-3-yl)-6-fluoro-1,3-dioxoisoindolin-5-yl)piperazin-1-yl)pyrimidin-5-yl)phenyl)-N-((1R,4R)-4-(quinazolin-2-ylamino)cyclohexyl)acetamide] |  |
| 1000 to 3000 | 500 to 1000 | CC(=O)N(c1ccc(-c2cnn(C3CCN(c4ccc5c(c4)C(=O)N(C4CCC(=O)NC4=O)C5=O)CC3)c2)cc1)[C@H]1CC[C@H](Nc2ncc3ccccc3n2)CC1 (stereo partly drawn) [Formula 117, N-(4-(1-(1-(2-(2,6-dioxopiperidin-3-yl)-1,3-dioxoisoindolin-5-yl)piperidin-4-yl)-1H-pyrazol-4-yl)phenyl)-N-((1R,4R)-4-(quinazolin-2-ylamino)cyclohexyl)acetamide] |  |
| 100 to 500 | < 100 | CC(=O)N(c1ccc(-c2cnc(N3CCN(c4cnn([C@H](C(=O)N5C[C@H](O)C[C@H]5C(=O)N[C@@H](C)c5ccc(-c6scnc6C)cc5)C(C)C)c4)CC3)nc2)cc1)[C@H]1CC[C@H](Nc2ncc3ccccc3n2)CC1 [Formula 154, (2S,4R)-4-hydroxy-1-((S)-3-methyl-2-(4-(4-(5-(4-(N-((1R,4R)-4-(quinazolin-2-ylamino)cyclohexyl)acetamido)phenyl)pyrimidin-2-yl)piperazin-1-yl)-1H-pyrazol-1-yl)butanoyl)-N—((S)-1-(4-(4-methylthiazol-5-yl)phenyl)ethyl)pyrrolidine-2-carboxamide] |  |
| 100 to 500 | 100 to 500 | CC(=O)N(c1ccc(-c2ccn(CC3CN(c4ccc5c(c4)C(=O)N(C4CCC(=O)NC4=O)C5=O)C3)c(=O)c2)cc1)[C@H]1CC[C@H](Nc2ncc3ccccc3n2)CC1 (stereo partly drawn) [Formula 112, N-(4-(1-((1-(2-(2,6-dioxopiperidin-3-yl)-1,3-dioxoisoindolin-5-yl)azetidin-3-yl)methyl)-2-oxo-1,2-dihydropyridin-4-yl)phenyl)-N-((1R,4R)-4-(quinazolin-2-ylamino)cyclohexyl)acetamide] |  |
| < 100 | < 100 | CC(=O)N(c1ccc(-c2cnc(N3CCN(CC(=O)N[C@H](C(=O)N4C[C@H](O)C[C@H]4C(=O)N[C@@H](C)c4ccc(-c5scnc5C)cc4)C(C)(C)C)CC3)nc2)cc1)[C@H]1CC[C@H](Nc2ncc3ccccc3n2)CC1 [Formula 148, (2S,4R)-1-((S)-3,3-dimethyl-2-(2-(4-(5-(4-(N-((1R,4R)-4-(quinazolin-2-ylamino)cyclohexyl)acetamido)phenyl)pyrimidin-2-yl)piperazin-1-yl)acetamido)butanoyl)-4-hydroxy-N—((S)-1-(4-(4-methylthiazol-5-yl)phenyl)ethyl)pyrrolidine-2-carboxamide] |  |
| 1000 to 3000 | 3000 to 10000 | CC(=O)N(c1ccc(N2CCN(C3CCN(c4ccc5c(c4)C(=O)N(C4CCC(=O)NC4=O)C5=O)C3)CC2)cc1)[C@H]1CC[C@H](Nc2ncc3ccccc3n2)CC1 (stereo partly drawn) [Formula 125, N-(4-(4-(1-(2-(2,6-dioxopiperidin-3-yl)-1,3-dioxoisoindolin-5-yl)pyrrolidin-3-yl)piperazin-1-yl)phenyl)-N-((1R,4R)-4-(quinazolin-2-ylamino)cyclohexyl)acetamide] |  |
| 1000 to 3000 | 1000 to 3000 | CC(=O)N(c1ccc(-c2cnn(C3CCN(CC(=O)N[C@H](C(=O)N4C[C@H](O)C[C@H]4C(=O)N[C@@H](C)c4ccc(-c5scnc5C)cc4)C(C)(C)C)CC3)c2)cc1)[C@H]1CC[C@H](Nc2ncc3ccccc3n2)CC1 [Formula 139] |  |
| 500 to 1000 | 500 to 1000 | CC(=O)N(c1ccc(-c2cnc(OCC3CCN(CC(=O)N[C@H](C(=O)N4C[C@H](O)C[C@H]4C(=O)N[C@@H](C)c4ccc(-c5scnc5C)cc4)C(C)(C)C)CC3)nc2)cc1)[C@H]1CC[C@H](Nc2ncc3ccccc3n2)CC1 [Formula 134, (2S,4R)-1-((S)-3,3-dimethyl-2-(2-(4-(((5-(4-(N-((1R,4R)-4-(quinazolin-2-ylamino)cyclohexyl)acetamido)phenyl)pyrimidin-2-yl)oxy)methyl)piperidin-1-yl)acetamido)butanoyl)-4-hydroxy-N—((S)-1-(4-(4-methylthiazol-5-yl)phenyl)ethyl)pyrrolidine-2-carboxamide] |  |
| 1000 to 3000 |  | CC(=O)N(c1ccc(N2CCC3(CC2)CCN(c2ccc4c(c2)C(=O)N(C2CCC(=O)NC2=O)C4=O)C3)cc1)[C@H]1CC[C@H](Nc2ncc3ccccc3n2)CC1 (stereo partly drawn) [Formula 119, N-(4-(2-(2-(2,6-dioxopiperidin-3-yl)-1,3-dioxoisoindolin-5-yl)-2,8-diazaspiro[4.5]decan-8-yl)phenyl)-N-((1R,4R)-4-(quinazolin-2-ylamino)cyclohexyl)acetamide] |  |
